The test system of the series is HT-29 human carcinoma cells. The experiment in a line: cells. The settings on record: for Cloning Efficiency (% of control): 72 hours. Here is the method: HT-29 human carcinoma cells (ATCC No. HTB-38) were maintained in RPMI 1640 with 10%v/v fetal bovine serum (GIBCO) in a humidified, 5% CO2 atmosphere at 37° C. Cells were plated in 24 well plates (150 cells per well) in RPMI 1640 medium with 10% v/v dialyzed fetal bovine serum. […] The various agents were diluted in phosphate-buffered saline (PBS), and control wells received vehicle alone. After 72 hours, drug containing medium was removed and replaced with RPMI 1640 with 10%v/v fetal bovine serum. Cell colonies were allowed to grow for an additional 7-10 days, at which point they were stained and counted. […] Data are means of at least 3 determinations.

The mark [1] stands for this setting: 5-FU 0, IFN 500 u/ml, 5-ETH or 5-PRO 150 μM.
The mark [2] stands for this setting: 5-FU 0.05 μM, IFN 500 u/ml, 5-ETH or 5-PRO 150 μM.
Where [3] appears, read: 5-FU 0.10 μM, IFN 500 u/ml, 5-ETH or 5-PRO 150 μM.
[4] abbreviates: 5-FU 0.25 μM, alone (CONT) or with IFN 500 u/ml, 5-ETH or 5-PRO 150 μM.
Where [5] appears, read: 5-FU 0.50 μM, alone (CONT) or with IFN 500 u/ml, 5-ETH or 5-PRO 150 μM.
Setting [6] is: 5-FU 1.0 μM, alone (CONT) or with IFN 500 u/ml, 5-ETH or 5-PRO 150 μM.
The mark [7] stands for this setting: 5-FU 1.5 μM, alone (CONT) or with IFN 500 u/ml, 5-ETH or 5-PRO 150 μM.

This is an account of results in US5496810A, “Pyrimidine deoxyribonucleoside potentiation of combination therapy based on 5-fluorouracil and interferon” (Montefiore Medical Center, priority 1994, dated 1996).

With `O=c1[nH]cc(F)c(=O)[nH]1` [5-FU, 5-fluorouracil], the IC50 (usually the concentration at which inhibition is half-maximal) (Homo sapiens, HT-29, 72 h, read-out: 5-FU IC50, with 5-propynyloxy-2'-deoxyuridine (150 μM), 3 days of drug treatment) was 260 nM. Besides, the inhibition at 2 µM (Homo sapiens, HT-29, 72 h, read-out: reduction in colonies) is 50%.

Consider `CCOc1cn([C@H]2C[C@H](O)[C@@H](CO)O2)c(=O)[nH]c1=O` [5-ethoxy-2'-deoxyuridine], for which the “increased the cytotoxicity of 5-fluorouracil” value is on record as 5.7 times. Moreover, the “Cloning Efficiency (% of control)” value under setting [1] is on record as 89%. In addition, the “Cloning Efficiency (% of control)” value under setting [2] turned out to be 81%. Also, under setting [3], the “Cloning Efficiency (% of control)” value turned out to be 80%. Also, the “Cloning Efficiency (% of control)” value under setting [4] is on record as 60%. Besides, the “Cloning Efficiency (% of control)” value under setting [5] is recorded as 38%. Also, the “Cloning Efficiency (% of control)” value under setting [6] was determined as 13%. Also, under setting [7], the “Cloning Efficiency (% of control)” value came out at 4%.

As for `C#CCOc1cn([C@H]2C[C@H](O)[C@@H](CO)O2)c(=O)[nH]c1=O` [5-propynyloxy-2'-deoxyuridine, 5-(2-propynyloxy)-2'-deoxyuridine], the “increased the cytotoxicity of 5-fluorouracil” value is reported as 7.7 times. Also, the “Cloning Efficiency (% of control)” value under setting [1] was found to be 105%. In addition, the “Cloning Efficiency (% of control)” value under setting [2] was determined as 100%. Also, the “Cloning Efficiency (% of control)” value under setting [3] was determined as 81%. Moreover, under setting [4], the “Cloning Efficiency (% of control)” value turned out to be 51%. In addition, under setting [5], the “Cloning Efficiency (% of control)” value was 26%. Under setting [6], the “Cloning Efficiency (% of control)” value came out at 9%. Moreover, the “Cloning Efficiency (% of control)” value under setting [7] is listed as 4%. Further, the “Cloning Efficiency (% of control)” value (5-FU 2.0 μM, alone (CONT) or with IFN 500 u/ml, 5-PRO 150 μM) is 2%. Besides, the “Cloning Efficiency (% of control)” value (5-FU 3.0 μM, alone (CONT) or with IFN 500 u/ml, 5-PRO 150 μM) stood at 0%.
